Assay [1] concerns human phytanoyl-CoA hydroxylase. As to conditions: read-out: Km app(O2); cited from earlier work. From the text:
(§1) At higher partial pressures of O2, the standard deviation among independent quadruplicates increased slightly because of efficient peptide hydroxylation requiring short reaction times; however, maximum velocities (vmax^app) were still similar within experimental error, indicating good data quality and reproducibility (Fig. S7). The AspH Km^app for O2 is high compared with the values reported for most oth ...

A further assay relates to KDM6A. As to conditions: read-out: Km app(O2); cited from earlier work.
From the text: as §1

Another assay concerns KDM4C. Conditions: read-out: Km app(O2); cited from earlier work.
From the text: as §1

The next assay has as its system PHD2. As to conditions: same experimental setup, cited from earlier work; for Km: read-out: Km app for O2.
From the text: as §1

Assay [2] deals with collagen prolyl 4-hydroxylases. As to conditions: read-out: Km app(O2); cited from earlier work.
From the text: as §1

A further assay relates to FIH. Conditions: peptide substrate HIF-1α CAD35mer, same experimental setup, cited from earlier work.
From the text: as §1

In the next assay the test system is KDM4E. As to conditions: read-out: Km app(O2); cited from earlier work.
From the text: as §1

Another assay deals with KDM4A. Conditions: cited from earlier work.
From the text: as §1

Another assay deals with T1, human His6–AspH315–758 (Homo sapiens, UniProt Q12797).
T1 construct: a pET-28a(+) vector encoding for N-terminal His6-tagged AspH315–758 (His6–AspH315–758) was transformed into Escherichia coli BL21 (DE3) cells; made in house; host or cells: Escherichia coli BL21 (DE3)
T1 sequence (Q12797 315-758): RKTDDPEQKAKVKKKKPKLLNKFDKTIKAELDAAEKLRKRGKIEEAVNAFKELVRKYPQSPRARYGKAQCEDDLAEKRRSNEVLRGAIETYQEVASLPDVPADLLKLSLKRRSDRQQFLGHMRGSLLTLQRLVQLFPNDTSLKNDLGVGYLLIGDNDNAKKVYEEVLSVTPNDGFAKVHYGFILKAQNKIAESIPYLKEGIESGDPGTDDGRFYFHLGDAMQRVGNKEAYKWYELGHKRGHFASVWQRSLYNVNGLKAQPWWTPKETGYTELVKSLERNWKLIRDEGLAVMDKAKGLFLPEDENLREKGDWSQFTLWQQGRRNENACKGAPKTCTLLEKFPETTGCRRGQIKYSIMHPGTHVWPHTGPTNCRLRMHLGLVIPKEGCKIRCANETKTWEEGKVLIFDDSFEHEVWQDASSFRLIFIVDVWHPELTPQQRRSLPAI
Nature of the assay: AspH O2 dependence (variable O2 partial pressures, SPE-MS). It is filed as biochemical. Conditions: n = 4. The method, then:
For determining vmax^app and Km^app of AspH for O2, 2.2 μM hFX–CP101–119 (65 μl) in 50 mM HEPES (pH 7.5) were exposed in a gas-tight glass vial to variable O2 concentrations (in nitrogen; Fig. S7) using a mass flow controller ([32]). After equilibrating the atmosphere, co-factor and co-substrates were added by syringe (1.5 μl of 4.7 mM LAA and 0.99 mM 2OG in MQ-grade water and 1.5 μl of 0.99 mM FAS in MQ-grade water) followed by 2.0 μl of 3.5 μM His6–AspH315–758 in 50 mM HEPES (pH 7.5) at 20 °C. The enzyme reaction was stopped after the indicated reaction time by the addition of 15% (v/v) aqueous formic acid (4 μl) and analyzed by SPE-MS using the configurations given above; the experiments were performed in independent quadruplicates. The data were analyzed as described, and the slopes of the initial reaction rates (Fig. S7) were fitted to a Michaelis–Menten plot using nonlinear regression (GraphPad Prism 5).

Where [3] appears, read: O2 varied, hFX–CP101–119 substrate.

Several values for one entry are separate records, joined by “and”; a condition that tells them apart may be missing. Identical values can stand only once. Like-named read-outs stand apart in the source and are kept apart here. Where only a bound is given, the exact number is not on record here.

What is called Km is the substrate concentration at which the rate is half of its maximum. The kcat is the number of substrate molecules converted per active site and unit of time at saturation. For orientation: kcat/Km means the turnover number divided by the Michaelis constant.

As to `O=O` [O2], the Km in assay [1] is 93 ± 43 µM; in the assay on KDM6A, 180 ± 40 µM; with KDM4C it was 158 ± 13 µM; in the assay with PHD2 (peptide substrate HIF-1α CODD), 460 ± 30 µM; in the assay on PHD2 (peptide substrate HIF-1α NODD) it was over 450 µM; in assay [2] it was 40 µM. Besides, the Km is ~110 µM and 110 µM with FIH (read-out: Km app for O2); 197 ± 16 µM with KDM4E; ~173 µM and 173 µM with KDM4A (peptide substrate H3_1–15K9me3, same experimental setup, read-out: Km app for O2); 57 ± 10 µM with KDM4A (read-out: Km app(O2)); ~426 µM and 426 µM on human His6–AspH315–758 (O2 varied (in nitrogen), 100 μM LAA, 20 μM 2OG, 20 μM FAS, 2.0 μM hFX–CP101–119, 0.1 μM His6–AspH315–758, 50 mM HEPES pH 7.5, 20 °C, O2 % converted by y[μM] = 9.026·x[%], read-out: Km app for O2). For the same molecule, the kcat in the assay on PHD2 (peptide substrate HIF-1α CODD) was 0.06 ± 0.01 s⁻¹; in the assay on PHD2 (peptide substrate HIF-1α NODD), 0.028 ± 0.001 s⁻¹; in the assay on FIH it was 0.56 ± 0.04 s⁻¹; at human His6–AspH315–758 (setting [3]), 0.23 ± 0.04 s⁻¹. Further, the “Km app of AspH for O2 [%]” value at human His6–AspH315–758 (O2 in nitrogen, 100 μM LAA, 20 μM 2OG, 20 μM FAS, 2.0 μM hFX-CP101-119, 0.1 μM His6-AspH315-758, pH 7.5, 20 °C) came out at 47.2 ± 8.1 % O2. The molecule also registered a vmax app at human His6–AspH315–758 (O2 varied (in nitrogen), 100 μM LAA, 20 μM 2OG, 20 μM FAS, 2.0 μM hFX–CP101–119, 0.1 μM His6–AspH315–758, 50 mM HEPES pH 7.5, 20 °C) of 0.0207 ± 0.0018 µM/s. Further, the kcat/Km on human His6–AspH315–758 (setting [3]) came out at 540 ± 130 M⁻¹ s⁻¹.

The record behind these values is publication PMC7278358, “Kinetic parameters of human aspartate/asparagine–β-hydroxylase suggest that it has a possible function in oxygen sensing” (The Journal of Biological Chemistry, 2020).
